Measured values: PubChem BioAssay AID328 (DTP/NCI, 2004)
“And” between values parts separate entries of the source, which are not always exact repeats. Equal values may be shown once. Inconclusive results and toxic doses are left out. How the source made its calls: active means survival T/C of 150% or more; inactive means T/C below 125% in these data.

Tested on: BDF1 mice, P388 leukemia ip, median survival T/C
Assay: NCI In Vivo Anticancer Drug Screen. Data for tumor model P388 Leukemia (intraperitoneal) in B6D2F1 (BDF1) mice
Conditions: endpoint: median survival time, higher = longer survival
How it was run: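 Mice carrying the transplantable tumour receive compound or vehicle. Survival is followed in each arm, and the treated measure is divided by the vehicle measure.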

[1] = dose: 50.0 mg/kg/injection, schedule: Q01DX009 (ip), vehicle: Klucel (hydroxypropylcellulose) (HPC)
[2] = dose: 100.0 mg/kg/injection, schedule: Q01DX009 (ip), vehicle: Klucel (hydroxypropylcellulose) (HPC)
[3] = dose: 100.0 mg/kg/injection, schedule: Q04DX003 (ip), vehicle: saline
[4] = dose: 150.0 mg/kg/injection, schedule: Q01DX009 (ip), vehicle: Klucel (hydroxypropylcellulose) (HPC)
[5] = dose: 200.0 mg/kg/injection, schedule: Q01DX009 (ip), vehicle: Klucel (hydroxypropylcellulose) (HPC)
[6] = dose: 25.0 mg/kg/injection, schedule: Q04DX003 (ip), vehicle: saline with Tween-80
[7] = dose: 50.0 mg/kg/injection, schedule: Q01DX009 (ip), vehicle: saline with Tween-80
[8] = dose: 50.0 mg/kg/injection, schedule: Q04DX003 (ip), vehicle: saline with Tween-80
[9] = dose: 100.0 mg/kg/injection, schedule: Q04DX003 (ip), vehicle: saline with Tween-80
[10] = dose: 200.0 mg/kg/injection, schedule: Q04DX003 (ip), vehicle: saline with Tween-80
[11] = dose: 12.5 mg/kg/injection, schedule: Q04DX003 (ip), vehicle: saline with Tween-80
[12] = dose: 400.0 mg/kg/injection, schedule: Q04DX003 (ip), vehicle: saline with Tween-80
[13] = dose: 100.0 mg/kg/injection, schedule: Q01DX009 (ip), vehicle: saline with Tween-80
[14] = dose: 200.0 mg/kg/injection, schedule: Q01DX009 (ip), vehicle: saline with Tween-80
[15] = dose: 100.0 mg/kg/injection, schedule: Q04DX003 (ip), vehicle: Klucel (hydroxypropylcellulose) (HPC)
[16] = dose: 200.0 mg/kg/injection, schedule: Q04DX003 (ip), vehicle: Klucel (hydroxypropylcellulose) (HPC)
[17] = dose: 400.0 mg/kg/injection, schedule: Q04DX003 (ip), vehicle: Klucel (hydroxypropylcellulose) (HPC)

Measured: T/C

NC(COC(c1ccccc1)(c1ccccc1)c1ccccc1)C(=O)O (stereo unspecified)
inactive: [1] 120 % of control | dose: 85.0 mg/kg/injection, schedule: Q04DX003 (ip), vehicle: other 120 % of control | [3] 122 % of control | [5] 90 % of control
active: dose: 65.0 mg/kg/injection, schedule: Q01DX009 (ip), vehicle: Klucel (hydroxypropylcellulose) (HPC) 150 % of control | [2] 155 % of control and 160 % of control | [4] 205 % of control | dose: 200.0 mg/kg/injection, schedule: Q04DX003 (ip), vehicle: other 150 % of control | dose: 300.0 mg/kg/injection, schedule: Q04DX003 (ip), vehicle: other 200 % of control

CC1OC(OC2CC(O)(C(=O)CO)Cc3c(O)c4c(c(O)c32)C(=O)c2ccccc2C4=O)CC(N)C1O (stereo unspecified)
active: dose: 216.0 micrograms/kg/injection, schedule: Q04DX003 (ip), vehicle: water 155 % of control | dose: 360.0 micrograms/kg/injection, schedule: Q04DX003 (ip), vehicle: water 163 % of control | dose: 600.0 micrograms/kg/injection, schedule: Q04DX003 (ip), vehicle: water 166 % of control

O=C(Nc1ccc(C2=NCCN2)cc1)Nc1cccc(NC(=O)Nc2cccc(C3=NCCN3)c2)c1
inactive: dose: 25.0 mg/kg/injection, schedule: Q01DX009 (ip), vehicle: saline with Tween-80 105 % of control | [7] 90 % of control
active: dose: 12.5 mg/kg/injection, schedule: Q01DX009 (ip), vehicle: saline with Tween-80 150 % of control | dose: 16.5 mg/kg/injection, schedule: Q04DX003 (ip), vehicle: saline with Tween-80 266 % of control and 170 % of control | [6] 250 % of control and 190 % of control and 200 % of control | dose: 37.5 mg/kg/injection, schedule: Q04DX003 (ip), vehicle: saline with Tween-80 283 % of control and 185 % of control | [8] 177 % of control

O=C(O)CN(CCN(CC(=O)O)CC(=O)O)CC(=O)O
inactive: dose: 25.0 mg/kg/injection, schedule: Q01DX010 (ip), vehicle: saline 100 % of control | dose: 50.0 mg/kg/injection, schedule: Q01DX010 (ip), vehicle: saline 91 % of control | dose: 200.0 mg/kg/injection, schedule: Q01DX010 (ip), vehicle: saline 95 % of control

CCOC(=O)C(C#N)c1cccc(C)c1 (stereo unspecified)
inactive: [9] 100 % of control | [10] 100 % of control

COc1cc2c3cc1Oc1c(OC)c(OC)cc4c1C(Cc1ccc(OC(C)=O)c(c1)Oc1ccc(cc1)CC3N(C)CC2)N(C)CC4 (stereo unspecified)
inactive: [11] 100 % of control | [6] 109 % of control | [8] 100 % of control | [10] 95 % of control | [12] 90 % of control

C=C1C(=O)O[C@H]2C/C(C)=C/CC/C(CO)=C/[C@@H](O)[C@H]12
inactive: dose: 5.5 mg/kg/injection, schedule: Q01DX009 (ip), vehicle: alcohol 110 % of control | dose: 33.0 mg/kg/injection, schedule: Q01DX009 (ip), vehicle: alcohol 120 % of control | dose: 50.0 mg/kg/injection, schedule: Q01DX009 (ip), vehicle: alcohol 95 % of control

O=NN(c1ccccc1)c1ccc(N(N=O)c2ccccc2)cc1
inactive: [1] 100 % of control | [2] 105 % of control | [5] 110 % of control

O=C(Nc1ccc(F)cc1)C(F)(F)F
inactive: [7] 106 % of control | [13] 98 % of control | [14] 105 % of control

CCCCn1cnc2c(SC)nc(N)nc21
inactive: dose: 66.0 mg/kg/injection, schedule: Q01DX009 (ip), vehicle: Klucel (hydroxypropylcellulose) (HPC) 95 % of control | [2] 104 % of control | [15] 100 % of control | [4] 100 % of control | [16] 90 % of control | [17] 90 % of control

O=C1c2c(O)ccc(O)c2C(=O)c2c(NCCOCCO)ccc(NCCOCCO)c21
inactive: dose: 25.0 mg/kg/injection, schedule: Q01DX005 (ip), vehicle: saline with Tween-80 102 % of control | dose: 50.0 mg/kg/injection, schedule: Q01DX005 (ip), vehicle: saline with Tween-80 100 % of control | dose: 100.0 mg/kg/injection, schedule: Q01DX005 (ip), vehicle: saline with Tween-80 118 % of control | dose: 200.0 mg/kg/injection, schedule: Q01DX005 (ip), vehicle: saline with Tween-80 109 % of control

C=C(C(=O)OC1C/C(C)=C/C(O)C/C(C)=C/C2OC(=O)C(=C)C21)C(C)O (stereo unspecified)
inactive: dose: 100.0 mg/kg/injection, schedule: Q04DX002 (ip), vehicle: Klucel (hydroxypropylcellulose) (HPC) 120 % of control

O=C(CNC(=O)Nc1n[nH]c(=S)s1)NNC(=S)Nc1ccccc1
inactive: [7] 115 % of control | [13] 118 % of control | [14] 109 % of control

NC(=O)C1(C(N)=O)CCC1
inactive: [2] 100 % of control | [15] 100 % of control | [5] 110 % of control | [16] 100 % of control | dose: 400.0 mg/kg/injection, schedule: Q01DX009 (ip), vehicle: Klucel (hydroxypropylcellulose) (HPC) 100 % of control | [17] 100 % of control

O=[N+]([O-])c1ccc(/C=C/c2ncccn2)o1
inactive: [15] 100 % of control | [16] 100 % of control | [17] 100 % of control

O=C(c1ccccc1)C(O)(CC(c1ccccc1)[P+](c1ccccc1)(c1ccccc1)c1ccccc1)c1ccccc1 (stereo unspecified)
inactive: dose: 0.87 mg/kg/injection, schedule: Q01DX009 (ip), vehicle: saline 108 % of control | dose: 3.12 mg/kg/injection, schedule: Q01DX009 (ip), vehicle: Klucel (hydroxypropylcellulose) (HPC) 122 % of control | dose: 3.5 mg/kg/injection, schedule: Q01DX009 (ip), vehicle: saline 120 % of control | dose: 6.25 mg/kg/injection, schedule: Q01DX009 (ip), vehicle: Klucel (hydroxypropylcellulose) (HPC) 113 % of control | dose: 6.25 mg/kg/injection, schedule: Q04DX003 (ip), vehicle: saline with Tween-80 109 % of control | dose: 12.5 mg/kg/injection, schedule: Q04DX003 (ip), vehicle: Klucel (hydroxypropylcellulose) (HPC) 104 % of control | [11] 118 % of control

COc1cc(C(Cc2ccnc3ccccc23)Cc2ccnc3ccccc23)ccc1N(C)C
inactive: [9] 91 % of control | [10] 104 % of control | [12] 115 % of control

COc1cc(C=Nc2cccc(C(=O)O)c2)ccc1N(CCCl)CCCl
active: dose: 66.0 mg/kg/injection, schedule: Q04DX003 (ip), vehicle: saline with Tween-80 260 % of control

COc1ccc(C(C(N)=O)N2CCCC2)cc1 (stereo unspecified)
inactive: [9] 110 % of control | [10] 120 % of control | [12] 100 % of control

CC12CCC(C(N)C1=O)C2(C)C (stereo unspecified)
inactive: dose: 50.0 mg/kg/injection, schedule: Q01DX009 (ip), vehicle: saline 107 % of control | dose: 100.0 mg/kg/injection, schedule: Q01DX009 (ip), vehicle: saline 114 % of control | [3] 101 % of control | dose: 200.0 mg/kg/injection, schedule: Q01DX009 (ip), vehicle: saline 86 % of control | dose: 200.0 mg/kg/injection, schedule: Q04DX003 (ip), vehicle: saline 104 % of control

O=C1C=CC(=O)c2c(O)c(CBr)c(CBr)c(O)c21
inactive: dose: 3.12 mg/kg/injection, schedule: Q01DX009 (ip), vehicle: water 96 % of control | dose: 6.25 mg/kg/injection, schedule: Q01DX009 (ip), vehicle: water 118 % of control | dose: 6.25 mg/kg/injection, schedule: Q04DX003 (ip), vehicle: water 105 % of control | dose: 12.5 mg/kg/injection, schedule: Q01DX009 (ip), vehicle: water 108 % of control | dose: 12.5 mg/kg/injection, schedule: Q04DX003 (ip), vehicle: water 105 % of control | dose: 25.0 mg/kg/injection, schedule: Q01DX009 (ip), vehicle: water 118 % of control | dose: 25.0 mg/kg/injection, schedule: Q04DX003 (ip), vehicle: water 100 % of control | dose: 50.0 mg/kg/injection, schedule: Q01DX009 (ip), vehicle: water 112 % of control | dose: 50.0 mg/kg/injection, schedule: Q04DX003 (ip), vehicle: water 107 % of control | dose: 100.0 mg/kg/injection, schedule: Q01DX009 (ip), vehicle: water 105 % of control

O=C1CCCC1C(=O)Nc1cccc2cccnc12 (stereo unspecified)
inactive: [9] 117 % of control | [10] 95 % of control | [12] 100 % of control

Cc1c2oc3c(C)ccc(C(=O)NCCc4ccco4)c3nc-2c(C(=O)NCCc2ccco2)c(N)c1=O
inactive: [9] 102 % of control | [10] 99 % of control | [12] 96 % of control
